Holding throughout (assay type): physicochemical
Data set [1] is described as follows: Aqueous solubility (general statements).
Data set [2] in a line: Solubility in HP-β-CD at high pH. As to conditions: 25% cyclodextrin solution, aqueous with cosolvent or surfactant or cyclodextrin. As to the method:
Compound forms a metastable supersaturated solution when formulated with cyclodextrins. To assess for increased solubility, Compound 1 was added to a basic cyclodextrin solution to effect dissolution. The resulting solution was then adjusted with hydrochloric acid into a physiologically compatible pH range and subjected to kinetic solubility, equilibrium solubility, and formulation solubility analyses.
Kinetic solubility. […] The resulting intermediate pH values were approximately 12.5, which promoted rapid dissolution of Compound 1. However, the solutions are known to be chemically labile at higher pH values. The concentration of Compound 1 in subsequent formulation evaluations was lowered to 20 mg/mL and then reduced to 15 mg/mL.

Data set [3] is described as follows: Comparative solubility in SBE-β-CD at pH 9.5. As to conditions: pH 9.5, 80 mg/mL, 22 hours stirring at room temperature. As to the method:
For this study, 1.20 g of SBE-β-CD was weighed into a beaker and 1.31 mL of water was added. This mixture was stirred to dissolve solid completely. 0.846 g of 60% SBE-β-CD stock solution was weighed into a sample vial, and 1.53 mg of GLY, 70 μL of water, and 130 μL of 2N NaOH were added. This mixture was stirred for 10 minutes at room temperature to dissolve solid completely. 80.6 mg of Compound 1 was added (80 mg/mL) and the mixture was sonicated for 10 minutes followed by vigorous stirring for 22 hours at room temperature (23-25° C.).

A short description of data set [4]: Solubility measurement in solvents. As to conditions: for solubility at 2 h / solubility at 0.5 h: room temperature. As for the experimental part:
(§1) Solubility analysis of Compound 1 (N-(benzo[d]thiazol-2-yl)-4-((2-hydroxy-3-methoxybenzyl)amino)benzenesulfonamide) was performed in a total of 25 media including organic solvent, co-solvent, solubilizer and buffer, for 2 hours at room temperature.
(§2) HPLC method with acceptable resolution and main peak purity developed to determine solubility. The method is described in Table 3.
About 5 mg of Compound 1 was weighed to sample vial and 0.5 mL of solvent was added (target concentration was 10 mg/mL) with 30-100 μL per time. The samples were shaken at room temperature. The samples were prepared in duplicate (n=2) per medium and filtered at 0.5 and 2 hours. The supernatant was collected and analyzed by HPLC.

The nature of data set [5]: Solubility measurement in solubilizers (aqueous phosphate buffer at pH 7.4). As to the method: as §1, §2
(§3) 5-10 mg of Compound 1 was added to 0.5-1 mL each medium (target concentration was 10 mg/mL), vortexed briefly to create a suspension. The samples were shaken at room temperature. The samples were prepared in duplicate (n=2) per medium and filtered at 0.5 and 2 hours. The supernatant was collected and analyzed by HPLC.

Data set [6] is described as follows: Solubility measurement in buffers over a pH range. As to conditions: thermodynamic from solid. As to the method: as §1, §2, §3
Where [7] appears, read: pH 8.0, read-out: Solubility with 25% cyclodextrin at pH 8.0.
[8] abbreviates: pH 9.8, read-out: Solubility with 25% cyclodextrin at pH 9.8.

The structures appear in SMILES notation. ≈ marks a conversion by molar mass, not a printed value. Where only a bound is given, the exact number is not on record here.

By solubility is commonly meant the dissolved amount per volume that the medium holds.

Turning to `COc1cccc(CNc2ccc(S(=O)(=O)Nc3cccc(C(C)C)c3)cc2)c1O` [Compound 3, 4-((2-hydroxy-3-methoxybenzyl)amino)-N-(3-isopropylphenyl)benzenesulfonamide], the Solubility in water entry in data set [1] is listed as “poor solubility”. The values for the solubility in data set [2] (setting [7]) and in data set [2] (setting [8]) were ~20000 µg/mL (≈ 46900 µM) and ~40000 µg/mL (≈ 93800 µM), respectively.

As to `COc1cccc(CNc2ccc(S(=O)(=O)Nc3nc4ccccc4o3)cc2)c1O` [Compound 2, N-(benzo[d]oxazol-2-yl)-4-((2-hydroxy-3-methoxybenzyl)amino)benzenesulfonamide], the Solubility in water result in data set [1] is on record as “poor solubility”. For the same compound, the solubility in data set [2] (setting [7]) is ~20000 µg/mL (≈ 47000 µM); in data set [2] (setting [8]), ~40000 µg/mL (≈ 94000 µM).

On to `COc1cccc(CNc2ccc(S(=O)(=O)Nc3nc4ccccc4s3)cc2)c1O` [Compound 1, N-(benzo[d]thiazol-2-yl)-4-((2-hydroxy-3-methoxybenzyl)amino)benzenesulfonamide], for which the “Dissolution in SBE-β-CD, visual observation” value in data set [3] was “Little, if any, dissolution”. The Solubility in water entry in data set [1] was “poor solubility”. The “solubility at 2 h” value was “Not precipitated” in data set [4] (DMAC, 2 h, visual observation); “Not precipitated” in data set [4] (DMSO, 2 h, visual observation); 270 µg/mL (≈ 612 µM) in data set [4] (EtOH, organic solvent or mixture, thermodynamic from solid, EtOH, 2 h, read-out: Solubility at 2 h); 25 µg/mL (≈ 56.6 µM) in data set [4] (Glycerin, organic solvent or mixture, thermodynamic from solid, Glycerin, 2 h, read-out: Solubility at 2 h); “Not precipitated” in data set [4] (NMP, 2 h, visual observation); > 10000 µg/mL in data set [4] (PEG400, organic solvent or mixture, thermodynamic from solid, PEG400, 2 h, solution was clear at 2 h, read-out: Solubility at 2 h). The solubility at 2 h was 420 µg/mL (≈ 951 µM) in data set [4] (PG, organic solvent or mixture, thermodynamic from solid, PG, 2 h, read-out: Solubility at 2 h); < 0.15 µg/mL in data set [4] (n-Hexane, organic solvent or mixture, thermodynamic from solid, n-Hexane, 2 h, LOQ = 0.00015 mg/mL, read-out: Solubility at 2 h); 39 µg/mL (≈ 88.3 µM) in data set [5] (1% Tween 80 in phosphate buffer, pH 7.4, aqueous with cosolvent or surfactant or cyclodextrin, thermodynamic from solid, 1% Tween 80, phosphate buffer pH 7.4, 2 h, read-out: Solubility at 2 h); 51 µg/mL (≈ 116 µM) in data set [5] (5% Cremophor RH40 in phosphate buffer, pH 7.4, aqueous with cosolvent or surfactant or cyclodextrin, thermodynamic from solid, 5% Cremophor RH40, phosphate buffer pH 7.4, 2 h, read-out: Solubility at 2 h); ~100 µg/mL (≈ 226 µM) in data set [5] (5% Solutol in phosphate buffer, pH 7.4, aqueous with cosolvent or surfactant or cyclodextrin, thermodynamic from solid, 5% Solutol, phosphate buffer pH 7.4, 2 h, read-out: Solubility at 2 h); 100 µg/mL (≈ 226 µM) in data set [5] (5% Solutol, phosphate buffer pH 7.4, 2 h). In addition, the solubility at 2 h stood at 46 µg/mL (≈ 104 µM) in data set [5] (5% Tween 80 in phosphate buffer, pH 7.4, aqueous with cosolvent or surfactant or cyclodextrin, thermodynamic from solid, 5% Tween 80, phosphate buffer pH 7.4, 2 h, read-out: Solubility at 2 h); 63 µg/mL (≈ 143 µM) in data set [5] (10% HP-β-CD in phosphate buffer, pH 7.4, aqueous with cosolvent or surfactant or cyclodextrin, thermodynamic from solid, 10% HP-β-CD, phosphate buffer pH 7.4, 2 h, read-out: Solubility at 2 h); 78 µg/mL (≈ 177 µM) in data set [5] (10% Tween 80 in phosphate buffer, pH 7.4, aqueous with cosolvent or surfactant or cyclodextrin, thermodynamic from solid, 10% Tween 80, phosphate buffer pH 7.4, 2 h, read-out: Solubility at 2 h); 110 µg/mL (≈ 249 µM) in data set [5] (20% Captisol in phosphate buffer, pH 7.4, aqueous with cosolvent or surfactant or cyclodextrin, thermodynamic from solid, 20% Captisol, phosphate buffer pH 7.4, 2 h, read-out: Solubility at 2 h); 190 µg/mL (≈ 430 µM) in data set [5] (20% HP-β-CD in phosphate buffer, pH 7.4, aqueous with cosolvent or surfactant or cyclodextrin, thermodynamic from solid, 20% HP-β-CD, phosphate buffer pH 7.4, 2 h, read-out: Solubility at 2 h); 570 µg/mL (≈ 1290 µM) in data set [5] (40% HP-β-CD in phosphate buffer, pH 7.4, aqueous with cosolvent or surfactant or cyclodextrin, thermodynamic from solid, 40% HP-β-CD, phosphate buffer pH 7.4, 2 h, read-out: Solubility at 2 h). In data set [6] (bicarbonate buffer pH 10.0, pH 10, aqueous buffer, Bicarbonate, pH 10.0, 2 h (measured pH 10.08)), this compound displayed a solubility at 2 h of 0.576 µg/mL (≈ 1.31 µM). Also, the solubility at 0.5 h is > 100000 µg/mL in data set [4] (DMAC, organic solvent or mixture, thermodynamic from solid, 0.5 h, visual observation); > 100000 µg/mL in data set [4] (DMSO, organic solvent or mixture, thermodynamic from solid, 0.5 h, visual observation); 290 µg/mL (≈ 657 µM) in data set [4] (EtOH, organic solvent or mixture, thermodynamic from solid, 0.5 h); 13 µg/mL (≈ 29.4 µM) in data set [4] (Glycerin, organic solvent or mixture, thermodynamic from solid, 0.5 h); > 100000 µg/mL in data set [4] (NMP, organic solvent or mixture, thermodynamic from solid, 0.5 h, visual observation); 4420 µg/mL (≈ 10000 µM) in data set [4] (PEG400, organic solvent or mixture, thermodynamic from solid, PEG400, 0.5 h). In addition, the solubility at 0.5 h in data set [4] (PG, organic solvent or mixture, thermodynamic from solid, 0.5 h) was 400 µg/mL (≈ 906 µM); in data set [4] (n-Hexane, organic solvent or mixture, thermodynamic from solid, 0.5 h, LOQ = 0.00015 mg/mL), < 0.15 µg/mL; in data set [5] (1% Tween 80 in phosphate buffer, pH 7.4, aqueous with cosolvent or surfactant or cyclodextrin, thermodynamic from solid, 1% Tween 80, phosphate buffer pH 7.4, 0.5 h) it was 20 µg/mL (≈ 45.3 µM); in data set [5] (5% Cremophor RH40 in phosphate buffer, pH 7.4, aqueous with cosolvent or surfactant or cyclodextrin, thermodynamic from solid, 5% Cremophor RH40, phosphate buffer pH 7.4, 0.5 h), 47 µg/mL (≈ 106 µM); in data set [5] (5% Solutol in phosphate buffer, pH 7.4, aqueous with cosolvent or surfactant or cyclodextrin, thermodynamic from solid, 5% Solutol, phosphate buffer pH 7.4, 0.5 h) it was 78 µg/mL (≈ 177 µM); in data set [5] (5% Tween 80 in phosphate buffer, pH 7.4, aqueous with cosolvent or surfactant or cyclodextrin, thermodynamic from solid, 5% Tween 80, phosphate buffer pH 7.4, 0.5 h), 41 µg/mL (≈ 92.9 µM). The solubility at 0.5 h was determined as 56 µg/mL (≈ 127 µM) in data set [5] (10% HP-β-CD in phosphate buffer, pH 7.4, aqueous with cosolvent or surfactant or cyclodextrin, thermodynamic from solid, 10% HP-β-CD, phosphate buffer pH 7.4, 0.5 h); 76 µg/mL (≈ 172 µM) in data set [5] (10% Tween 80 in phosphate buffer, pH 7.4, aqueous with cosolvent or surfactant or cyclodextrin, thermodynamic from solid, 10% Tween 80, phosphate buffer pH 7.4, 0.5 h); 100 µg/mL (≈ 226 µM) in data set [5] (20% Captisol in phosphate buffer, pH 7.4, aqueous with cosolvent or surfactant or cyclodextrin, thermodynamic from solid, 20% Captisol, phosphate buffer pH 7.4, 0.5 h); 170 µg/mL (≈ 385 µM) in data set [5] (20% HP-β-CD in phosphate buffer, pH 7.4, aqueous with cosolvent or surfactant or cyclodextrin, thermodynamic from solid, 20% HP-β-CD, phosphate buffer pH 7.4, 0.5 h); 450 µg/mL (≈ 1020 µM) in data set [5] (40% HP-β-CD in aqueous phosphate buffer pH 7.4, pH 7.4, aqueous with cosolvent or surfactant or cyclodextrin, thermodynamic from solid, 40% HP-β-CD, phosphate buffer pH 7.4, 0.5 h); 0.397 µg/mL (≈ 0.899 µM) in data set [6] (bicarbonate buffer pH 10.0, pH 10, aqueous buffer, Bicarbonate, pH 10.0, 0.5 h (measured pH 10.02)). For the same compound, the solubility in data set [4] (PEG400, organic solvent or mixture, thermodynamic from solid, PEG400, span over 0.5 h and 2 h, read-out: Solubility in PEG400) was 4000 to 10000 µg/mL (≈ 9060 to 22600 µM); in data set [4] (hexane, organic solvent or mixture, thermodynamic from solid, hexane, non-polar solvent, read-out: Solubility in hexane), < 0.15 µg/mL; in data set [4] (solvents other than DMSO, DMAC, NMP and PEG400, organic solvent or mixture, thermodynamic from solid, solvents other than DMSO, DMAC, NMP and PEG400, read-out: Solubility in other solvents), < 1000 µg/mL; in data set [5] (HP-β-CD (range of contents) in aqueous phosphate buffer, pH 7.4, aqueous with cosolvent or surfactant or cyclodextrin, thermodynamic from solid, HP-β-CD, range over contents tested), 50 to 500 µg/mL (≈ 113 to 1130 µM); in data set [2] (setting [7]), ~20000 µg/mL (≈ 45300 µM); in data set [2] (setting [8]) it was ~40000 µg/mL (≈ 90600 µM). Besides, the solubility in data set [6] (pH 10 buffer, pH 10, aqueous buffer, pH 10, read-out: Solubility in pH 10 buffer) is 0.4 to 0.6 µg/mL (≈ 0.906 to 1.36 µM); in data set [6] (pH buffers, pH 1, aqueous buffer, pH 1-9 buffers, main peak not detected by HPLC, read-out: Solubility in pH buffers, pH 1-9) it was < 0.15 µg/mL. Besides, in data set [5] (HP-β-CD 10% to 40%, pH 7.4), the “Increase of solubility with the increase of HP-β-CD from 10% to 40%” value was > 8 fold. In addition, in data set [5] (Tween 80 1% to 10%), the “Increase of solubility with the increase of Tween 80 from 1% to 10%” value is on record as “about 4 fold”. The “Solubility in HP-β-CD compared with Captisol (SBE-β-CD)” value in data set [5] (same concentration (20%)) is on record as “nearly two times greater”.

These data come from patent US20250057857A1, “AQUEOUS PARENTERAL PHARMACEUTICAL FORMULATIONS CONTAINING 4-((2-HYDROXY-3-METHOXYBENZYL)AMINO) BENZENESULFONAMIDE DERIVATIVES” (Veralox Therapeutics Inc., priority 2021, published 2025).
